{
  "source": "ChEMBL document CHEMBL1153813",
  "about": "“Synthesis of biotinylated OSW-1” (Bioorg Med Chem Lett, 2009)",
  "format_in_all_cases": "functional, cell-based",
  "key": {"ASPC1": {"system": "ASPC1", "assay": "Antiproliferative activity against human AsPC1 cells after 72 hrs by MTT assay", "details": "ASPC1, 72 h"}, "PANC-1": {"system": "PANC-1", "assay": "Antiproliferative activity against human PANC1 cells after 72 hrs by MTT assay", "details": "PANC-1, 72 h"}, "A-375": {"system": "A-375", "assay": "Antiproliferative activity against human A375 cells after 72 hrs by MTT assay", "details": "A-375, 72 h"}, "[1]": {"assay": "Antiproliferative activity against human WM35 cells after 72 hrs by MTT assay", "details": "WM35, 72 h"}, "HL-60": {"system": "HL-60", "assay": "Antiproliferative activity against human HL60 cells after 72 hrs by MTT assay", "details": "HL-60, 72 h"}},
  "note": "pIC50: −log10 of the molar value.",
  "data": [
    {"smiles": "COc1ccc(C(=O)O[C@H]2[C@H](O[C@@H]3[C@@H](O)[C@H](O[C@H]4C[C@H]5[C@@H]6CC=C7C[C@@H](OC(=O)CCCCCCCNC(=O)CCCC[C@@H]8SC[C@@H]9NC(=O)N[C@@H]98)CC[C@]7(C)[C@H]6CC[C@]5(C)[C@@]4(O)[C@H](C)C(=O)CCC(C)C)OC[C@@H]3O)OC[C@@H](O)[C@@H]2O)cc1", "values": [
      {"measurement": "pIC50", "setting": "ASPC1", "value": 9.15},
      {"measurement": "pIC50", "setting": "PANC-1", "value": 8.96},
      {"measurement": "pIC50", "setting": "A-375", "value": 9.70},
      {"measurement": "pIC50", "setting": "[1]", "value": 9.70},
      {"measurement": "pIC50", "setting": "HL-60", "value": 10.00}
    ]}
  ]
}
